{"source": "paper PMC8752738", "about": "“A propolis-derived small molecule ameliorates metabolic syndrome in obese mice by targeting the CREB/CRTC2 transcriptional complex” (Nature Communications, 2022)", "key": {"[1]": {"biological_target": "T1, GST-CREB / FLAG-CRTC2 interaction (Homo sapiens, UniProt P16220)", "T1 construct": "made in house; host or cells: GST-CREB beads (pGEX5X-1); FLAG-CRTC2 expressed in HEK293T cells", "T1 sequence (P16220 whole entry)": "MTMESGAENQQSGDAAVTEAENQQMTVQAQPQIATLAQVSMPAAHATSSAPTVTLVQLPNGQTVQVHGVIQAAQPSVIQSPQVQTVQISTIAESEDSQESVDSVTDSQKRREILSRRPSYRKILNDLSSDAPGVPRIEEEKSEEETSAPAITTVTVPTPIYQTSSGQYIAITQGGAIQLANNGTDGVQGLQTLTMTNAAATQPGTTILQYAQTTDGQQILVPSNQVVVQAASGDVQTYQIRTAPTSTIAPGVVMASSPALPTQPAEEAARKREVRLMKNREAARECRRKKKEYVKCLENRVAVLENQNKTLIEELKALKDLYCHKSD", "assay": "GST-pull-down of FLAG-CRTC2 from HEK293T lysates by GST-CREB beads", "type": "biochemical", "text": "To further confirm whether APC disrupts the protein association between CREB and CRTC2, we performed GST-pull-down assays in which GST-CREB beads were used to immunoprecipitated FLAG-tagged CRTC2 proteins that were expressed in HEK293T cells. As expected, APC attenuated the amounts of FLAG-CRTC2 proteins recovered by GST-CREB beads from HEK293T cell lysates (Fig. 2a). […] In contrast, APC had little effect on the association of GST-CREB with HA-P300 (Supplementary Fig. 2a), as well as the interaction between endogenous CRTC2 and CBP proteins (Fig. 2c). […]\nFig. 2 APC blocks interaction between CREB and CRTC2. a Analysis of GST-CREB immunoprecipitated with overexpressed FLAG-CRTC2 from the lysates of HEK293T cells. […] Data are represented as mean ± SEM); P values were determined by one-way ANOVA followed Dunnett’s multiple comparisons test. b Analysis of HA-CRTC2 immunoprecipitated with endogenous CREB from primary hepatocyte lysates. […] Data are represented as mean ± SEM; P values were determined by one-way ANOVA followed Dunnett’s multiple comparisons test. c Immunoblotting analysis of endogenous CREB, CRTC2, and CBP interaction by an anti-CRTC2 antibody from the lysate of primary hepatocytes. […] Data are represented as mean ± SEM; P values were determined by one-way ANOVA followed Dunnett’s multiple comparisons test (compared with APC = 0). […]"}, "[2]": {"biological_target": "T2, MYC-CREB-ZIP / FLAG-CRTC2 interaction (Homo sapiens, UniProt P16220)", "T2 construct": "expressed in transfected cells; host or cells: HEK293", "T2 sequence (P16220 269-327 limits assumed)": "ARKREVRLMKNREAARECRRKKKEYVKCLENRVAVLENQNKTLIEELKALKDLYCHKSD", "assay": "Immunoprecipitation of FLAG-CRTC2-WT with MYC-CREB-ZIP fragment", "type": "biochemical", "conditions": "for Relative FLAG/MYC in MYC-IP fraction: Fig 3c replicates, FSK +", "text": "Fig. 3 APC inhibits CRTC2 interacting with CREB-ZIP and reduces acetyltransferase activity of CBP by binding with CREB protein directly. a Isothermal titration calorimetry (ITC) of HIS-CREB protein solution titrated into APC solution. The bottom solid line represents a nonlinear least-squares fitted by a single-site binding model. One of two independent experiments is shown here. b IC50 of APC inhibitory activity detected by CREB–CRTC2 two-hybrid assay in HEK293T cells (n = 3 per treatment, data are represented as mean ± SEM). One of three independent experiments is shown here. c Immunoprecipitation analysis of FLAG-CRTC2-WT recovered by anti-MYC antibody from HEK293 cells co-transfected with plasmids for a Myc-Creb-Zip fragment and the FLAG-Crtc2-Wt, stimulated by FSK (10 nM) for 2-h before harvest. APC (1–10 μM) was included in immunoprecipitation mixtures as indicated. Top represents one of three independent experiments, and the relative gray density of FLAG normalized to MYC in MYC-IP- factions is shown as a bar graph (bottom, n = 3). Data are represented as mean ± SEM; P values were determined by one-way ANOVA followed Dunnett’s multiple comparisons test. d Immunoblotting analysis of the acetyltransferase activity of CBP. The protein levels of H3K27ac and total Histone H3 were determined using specific antibodies from HEK293 cell lysate overexpressing HA-Cbp plasmid. Pretreatment with trichostatin (TSA, 0.5 μM) for 1 h prior to incubation with APC (2, 10 μM) for another 2-h. The top represents one of three independent experiments, and the relative gray density of H3K27ac normalized to total Histone H3 in cell lysate is shown as a bar graph (bottom, n = 3). Data are represented as mean ± SEM; P values were determined by one-way ANOVA followed Dunnett’s multiple comparisons test. ns, P > 0.05; *P < 0.05; **P < 0.01. Sources data for this figure are provided as source data file."}}, "note": "Values joined by “and” are separate entries in the source; they are usually repeats but may differ in a detail not shown here. Equal values may be shown once.", "data": [{"compound": "CC(C)=CCc1cc(C=CC(=O)O)cc(CC=C(C)C)c1O", "note": "[APC, 3,5-diprenyl-4-hydroxycinnamic acid]", "values": [{"measurement": "Pull down FLAG/GST band dentsity (FLAG in IP fraction)", "setting": "[1]; Fig 2a source data, replicates, GST-CREB beads +, FLAG-CRTC2 +, APC + (10 μM)", "value": "1.359 FOLDS and 1.3596 FOLDS and 1.382 FOLDS"}, {"measurement": "FLAG-CRTC2 recovered by GST-CREB beads", "setting": "[1]; HEK293T lysates, APC 10 μM", "value": "attenuated"}, {"measurement": "FLAG-CRTC2 binding with MYC-CREB-ZIP domain", "setting": "[2]; APC 1–10 μM", "value": "inhibited"}, {"measurement": "Relative FLAG/MYC in MYC-IP fraction", "setting": "[2]; APC 1 uM", "value": "3.874 and 3.872 and 3.786"}, {"measurement": "Relative FLAG/MYC in MYC-IP fraction", "setting": "[2]; APC 5 uM", "value": "3.592 and 3.454 and 3.26"}, {"measurement": "Relative FLAG/MYC in MYC-IP fraction", "setting": "[2]; APC 10 uM", "value": "2.4146 and 2.393 and 2.225"}]}]}
